The test system of the test is CEM cells HIV-1 protection, formazan growth assay. Put plainly: NCI AIDS Antiviral Assay. The following applies: for IC50: measured here: growth of uninfected CEM cells. In a few lines: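 Soluble formazan readout of cell growth; CEM cells ± HIV-1; 5 drug concs. ≥50% protection → retest; ≥50% again = moderately active; reproducible 100% = confirmed active.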

The results in this text go back to PubChem BioAssay AID179 (DTP/NCI, 2004).

Active and inactive are the calls of the source.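 How the source made its calls: active means compounds giving half or more protection of infected cells from virus-caused growth loss, again on retest; inactive means the rest.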

A word on the EC50: it is the concentration that produces a half-maximal response. By IC50 is commonly meant the midpoint of a concentration-inhibition curve. As to `N#C/C(=C/c1cccc2ccccc12)C(=O)c1ccccc1`, the EC50 is over 13.2 µM and the IC50 is over 13.2 µM.
In the case of `O=C(NC(Cc1cnc[nH]1)C(=O)N1CCCC1)C1CCCC1` (stereo not drawn), the EC50 is over 200 µM.
In the case of `CN(C)/C=N\c1nn[nH]n1`, the EC50 is over 200 µM and the IC50 is 3.63 µM.
On to `COc1ccc(CCC2NCCc3cc(OC)c(OC)cc32)cc1` (stereo not drawn), for which the EC50 is over 692 µM and the IC50 is 102 µM.
For `N#Cc1cc2cc3c4c(c2oc1=O)CCCN4CCC3`, in that order: over 1.95 µM and over 1.95 µM.
On to `COC(=O)[C@@]12CC(C(C)C)[C@H]3CC(C(=O)C=C1OC)[C@H]32` (stereo partly drawn), for which the result was inactive.
Still for that read-out and setting: then `Cc1nc2c(nc1C)C(=O)C(N1CCCCC1)=CC2=O`, with “inactive”; and `CCCCCCCC/C=C\CCCCCCCCN=Cc1c(O)c(O)c(C(C)C)c2cc(C)c(-c3c(C)cc4c(C(C)C)c(O)c(O)c(C=NCCCCCCCC/C=C\CCCCCCCC)c4c3O)c(O)c12`, with “inactive”.
As for `CC(=O)Nc1ccc2oc3ccc(Cl)cc3c(=O)c2c1`, the EC50 was over 174 µM and the IC50 came out at 77.6 µM.
For `COC(=O)c1ccccc1C1CN=NC12Cc1ccc(C)cc1C2=O` (stereo not drawn), in that order: over 200 µM and 63.1 µM.
For `Cn1cc(N)cc1C(=O)Nc1cc(C(=O)Nc2cc(S(=O)(=O)O)c3cc(S(=O)(=O)O)cc(S(=O)(=O)O)c3c2)n(C)c1`, in that order: 53.7 µM and 339 µM.
The matching figures for `COc1cccc(NC(=O)CC(=O)Nc2cccc(OC)c2)c1`: over 200 µM and over 200 µM.
As to `CC(=O)CC(=O)NC=O`, the EC50 is over 263 µM and the IC50 was over 263 µM.
As for `CCCCNC(=S)Nc1nc(C(=O)NNC(=O)c2ccccc2)cs1`, the EC50 is over 200 µM and the IC50 came to 11.2 µM.
For `COc1ccc(-c2c(C(=O)O)oc3cc(O)ccc3c2=O)cc1OC`, in that order: over 200 µM and over 200 µM.
Consider `Cc1cc2c(C(C)C)c(O)c(O)c(C=NCCO)c2c(O)c1-c1c(C)cc2c(C(C)C)c(O)c(O)c(C=NCCO)c2c1O`, for which the result was inactive.
As for `[Cu+2].[O-]/N=C/c1ccc(O)cc1[O-].[O-]/N=C/c1ccc(O)cc1[O-]`, the EC50 was over 26.9 µM and the IC50 came out at 13.2 µM.
`O=C(Nc1ccc(Cl)cc1)C(=O)Nc1ccc(Cl)cc1`: the EC50 is over 200 µM and the IC50 was over 200 µM.
With `Cn1c(=O)c2nccnc2n(C)c1=O`, the EC50 is 178 µM and the IC50 is over 200 µM.
`COc1cc(C[P+](c2ccccc2)(c2ccccc2)c2ccccc2)cc(OC)c1OC`: the EC50 was over 479 µM and the IC50 stood at 33.1 µM.
Regarding `O=C1C=CC2=[N+]([O-])C(c3ccccc3)(c3ccccc3)C(=Nc3ccccc3)C2=C1`, the result was inactive.
Turning to `CCCCCCCCCCCCN1[C@H]2CCC[C@H]2C(O)[C@@H]2CCC[C@@H]21` (stereo partly drawn), the EC50 was over 200 µM and the concentration for half-maximal inhibition (IC50) turned out to be 4.9 µM.
For `CCOC1CCN(C(=O)c2ccccc2)O1` (stereo not drawn), in that order: over 200 µM and over 200 µM.
For `c1ccc(CN[C@]23C4C5CC6C7C5C2C7[C@@](NCc2ccccc2)(C64)N3Cc2ccccc2)cc1` (stereo partly drawn), in that order: over 200 µM and 105 µM.
For `Cc1nc2nnc(CCCCCCCCc3nnc4nc(C)[nH]n34)n2[nH]1`, in that order: 135 µM and 174 µM.
As to `CCCCCCCCCCCC(=O)Nc1ccc(SSc2ccc(NC(=O)CCCCCCCCCCC)cc2)cc1`, the EC50 is over 200 µM and the IC50 is over 200 µM.
Take `O=C(O)CCC(O)=C1S(=O)(=O)OCCOS1(=O)=O`: the EC50 was over 4470 µM and the IC50 was determined as 331 µM.
On to `CCOc1ccc(OCC(=O)O)c2c1CCCC2=O`, for which the outcome was inactive.
Turning to `COc1ccc(N2C(=O)C3c4[nH]c5ccccc5c4C4CC(C)CC(C)C4C3C2=O)cc1` (stereo not drawn), the EC50 is over 2.45 µM and the IC50 is over 2.45 µM.
On to `COc1ccc(CC(CC(=O)O)NC(C)=O)cc1` (stereo not drawn), for which the EC50 is over 1000 µM and the IC50 is over 1000 µM.
On to `Cc1[nH]n(-c2nc3c(c(=O)[nH]2)CCC3)c(=O)c1CCO`, for which the EC50 was over 200 µM and the IC50 is 182 µM.
The matching figures for `CC1(C)C(=NNC(=O)C[N+](C)(C)C)C(C)(C)C1=NNC(=O)C[N+](C)(C)C`: over 28.8 µM and over 28.8 µM.
The matching figures for `CC12CC3CC/C(=N\O)C(C1)C3(N1CCOCC1)C/C2=N/O` (stereo not drawn): over 200 µM and over 200 µM.
The matching figures for `O=C1c2ccccc2C(=O)c2c1nnn2-c1ccccc1`: over 200 µM and 3.55 µM.
`O=[N+]([O-])c1cc(C(F)(F)F)cc2n[se]nc12`: the outcome was inactive.
Regarding `OCCN=C1c2ccccc2C2C(c3ccccc31)C1c3ccccc3C(=NCCO)c3ccccc3C21` (stereo not drawn), the EC50 is over 200 µM and the IC50 came out at 24 µM.
The matching figures for `CCOC(=O)C(=O)N1C(C)=C(C(=O)OCC)CC(C(=O)OCC)=C1C`: over 200 µM and over 200 µM.
For `O=c1cc(O)c2c(ccc3ccccc32)[nH]1`, in that order: over 200 µM and over 200 µM.
For `CCCCC(=O)N1SC(NC(=O)OC)=Nc2ccccc21`, in that order: over 309 µM and 6.76 µM.
Regarding `COC(=O)C1=NC(=S)N=C(C(=O)OC)C12Cc1ccccc1C2=O`, the EC50 is over 724 µM and the IC50 came out at 214 µM.
As for `CCOC(=O)C1(NC(=O)OC(C)(C)C)CCc2[nH]oc(=O)c2C1` (stereo not drawn), the EC50 was over 200 µM and the IC50 is over 200 µM.
Take `O=C1NC(=O)C(Cc2ccccc2)(Cc2ccccc2)S1`: the EC50 is over 17.4 µM and the IC50 was over 17.4 µM.
In the case of `Cn1cnc([N+](=O)[O-])c1Sc1nc2ccc([N+](=O)[O-])cc2[nH]1`, the EC50 is over 81.3 µM and the IC50 amounted to 7.76 µM.
On to `CCc1cccc(C)c1NC(=O)C1=C(C)NC(C)=C(C(=O)Nc2c(C)cccc2CC)C1c1ccc2c(c1)OCO2`, for which the EC50 is over 24.5 µM and the IC50 was over 24.5 µM.
On to `C=C1CC2CC(O)CC(C1)C2` (stereo not drawn), for which the outcome was inactive.
`CC1OC(c2ccc3c(OCc4ccccc4)cccc3c2O)CC(OCc2ccccc2)[C@H]1OCc1ccccc1` (stereo partly drawn): the EC50 is over 200 µM and the IC50 was over 200 µM.
Consider `N#CC(C(=O)CCC(=O)Nc1cccc(Cl)c1)c1ccccc1` (stereo not drawn), for which the EC50 is over 759 µM and the IC50 is over 759 µM.
For the compound `COC(=O)CCCC=C(c1cc(F)c(OC)c(C(=O)OC)c1)c1cc(F)c(OC)c(C(=O)OC)c1`, the EC50 was 1.7 µM and the IC50 amounted to 64.6 µM.
For `CCOc1ccc(NC(=O)C(=O)CC(=O)c2c[n+](=O)c3cc(C)c(C)cc3n2[O-])cc1`, in that order: over 8.51 µM and over 8.51 µM.
Consider `O=C(OCC(Cl)(Cl)Cl)N1CC[C@H](C2CCCCC2)C1`, for which the EC50 is over 200 µM and the IC50 was found to be 50.1 µM.
`Brc1cnc2nsnc2c1`: the outcome was inactive.
Regarding `Cc1cc(=O)c2cc3ccc4c5[nH]c(C)cc(=O)c5cc5ccc(c2[nH]1)c3c54`, the EC50 is over 200 µM and the IC50 was 33.9 µM.
The matching figures for `COc1ccc2nc3cccc([N+](=O)[O-])c3c(NC(C)CN(C)C)c2c1` (stereo not drawn): over 20 µM and 2.29 µM.
The matching figures for `N#CI1OC(=O)c2ccccc21`: over 200 µM and over 100 µM.
